According to patent US12263248B2, “Compounds and compositions for intracellular delivery of therapeutic agents” (ModernaTX, Inc., priority 2018, dated 2025):

How the values were obtained:
[1] = Encapsulation efficiency of RNA (QUANT-IT RIBOGREEN RNA assay); format: physicochemical; details: Table 1A
Procedure, shortened: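 RiboGreen fluorescence (ex ~480, em ~520 nm) compared between intact samples and Triton X-100-lysed samples after 15 min at 37 °C in TE buffer, pH 7.5. Percent free RNA is the blank-corrected intact/disrupted ratio.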

[2] = Particle size and polydispersity index of nanoparticle compositions (Zetasizer Nano ZS); format: physicochemical; details: Table 1A; for Size (nm): lipid:DSPC:cholesterol:PEG-DMG 50:10:38.5:1.5 mol %
Procedure, shortened: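 Particle size and PDI were measured on a Zetasizer Nano ZS with the nanoparticle compositions dispersed in 1×PBS.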

[3] = Apparent (surface) pKa of the LNP formulation (TNS assay); format: physicochemical; details: for pKa: Table 1A
Procedure, shortened: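 LNP (0.04 mg/mL mRNA) mixed with TNS reagent in 21 buffers spanning about pH 3-12, in triplicate; fluorescence plotted against pH as sigmoidal curve. Apparent pKa taken as […] curve inflection point; validated in 1× PBS and 20 mM Tris w/8% sucrose.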

IL-6, IP-10 = test: Cytokine induction in mice upon intravenous administration; format: in vivo; parameters: Cytokine induction IL-6 / Cytokine induction IP-10: unit not given here; details: 0.5 mpk, 6 hours; for IL-6 induction / IP-10 induction: i.v., in words; for Cytokine induction IL-6 / Cytokine induction IP-10: intravenous
Description: The introduction of foreign material into a mammalian body induces an innate immune response that promotes cytokine production. Such immune responses to, for example, nanoparticle compositions including therapeutic and/or prophylactics, are undesirable. The induction of certain cytokines is thus measured to evaluate the […] of nanoparticle compositions. The concentrations of various cytokines in mice upon intravenous administration of nanoparticle compositions presented in Table 1A at a dosage of 0.5 mpk was measured at 6 hours. The standard MC3 formulation and a PBS control were also tested. As is evident in Table 7, IL-6 induction was highest for compositions including Compounds 1, 3, 9, 19, and 26, while IP-10 induction was highest for compositions including Compounds 3, 4, 7, 20, and 26. IL-6 induction was lowest for compositions including Compounds 4, 11, 12, and 28. IP-10 induction was lowest for compositions including Compounds 10, 11, 12, 13, 15, 17, and 18.

luciferase (Luc) mRNA [4] = test: Luc expression in liver, lung, spleen and femur 6 hours after intravenous administration; format: in vivo; details: mice, 0.5 mpk; for Total Flux Liver / Total Flux Lung / Total Flux Spleen / Total Flux Femur: intravenous
Procedure, shortened: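 LNP-formulated mRNA given IV to mice (n=3) at 0.5 mpk; at 6 h, bioluminescence imaged ex vivo 15 min after IP D-luciferin (15 mg/mL, 200 μL), organs imaged within 25 min. Values are total flux by region of interest.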

luciferase (Luc) mRNA [5] = test: Luc expression, whole body bioluminescence after intravenous administration to mice; format: in vivo; details: for Fold increase in total body Luc Flux relative to MC3 at 6 h: Table 3A, i.v. administration; for Total Flux 3 hours / Total Flux 6 hours / Total Flux 24 hours: Luc mRNA
Procedure, shortened: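 Luc mRNA nanoparticle formulations given intravenously to mice (n=6) at 0.5 mg/kg; whole-body bioluminescence imaged at 3, 6 and 24 h. CD-1 mice received IP D-luciferin (200 μL of 15 mg/mL) 15 min before imaging; total flux quantified by region of interest.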

luciferase (Luc) mRNA [6] = test: Luc expression (total flux) after intramuscular administration; format: in vivo, mice; details: Table 3H; intramuscular, Luc
Method: In order to monitor how effectively various nanoparticle compositions deliver therapeutic and/or prophylactics to targeted cells, different nanoparticle compositions including a particular therapeutic and/or prophylactic (for example, a modified or naturally occurring RNA such as an mRNA) are prepared and administered to rodent populations. Mice are intravenously, intramuscularly, intraarterially, or intratumorally administered a single dose including a nanoparticle composition with a formulation such as those provided in Example 3. In some instances, mice may be made to inhale doses. Dose sizes may range from 0.001 mg/kg to 10 mg/kg, where 10 mg/kg describes a dose including 10 mg of a therapeutic and/or prophylactic in a nanoparticle composition for each 1 kg of body mass of the mouse. A control composition including PBS may also be employed.
Sample formulations including both modified luciferase (Luc) mRNA and H10 mRNA were prepared and administered intramuscularly and the resulting expression and immunogenicity were evaluated simultaneously. Formulations including compounds according to Formula (I), (IA), (IB), (II), (IIa), (IIb), (IIc), (IId), (IIe), (IIf), (IIg), (III), (VI), (VI-a), (VII), (VIII), (VIIa), (VIIIa), (VIIIb), (VIIb-1), (VIIb-2), (VIIb-3), (VIIc), (VIId), (VIIIc), or (VIIId) were prepared and administered at doses of 0.001 and 0.01 mpk (e.g., doses of 0.0005 mpk of a formulation including Luc mRNA and a formulation including H10 mRNA or doses of 0.005 mpk of a formulation including Luc mRNA and a formulation including H10 mRNA).
Sample formulations including modified luciferase (Luc) mRNA prepared and administered intramuscularly and the resulting expression and immunogenicity were evaluated simultaneously. Formulations including compounds according to Formula (I), (IA), (IB), (II), (IIa), (IIb), (IIc), (IId), (IIe), (IIf), (IIg), (III), (VI), (VI-a), (VII), (VIII), (VIIa), (VIIIa), (VIIIb), (VIIb-1), (VIIb-2), (VIIb-3), (VIIc), (VIId), (VIIIc), or (VIIId) were prepared and administered at dose of and 0.01 mpk.

Compound	EE (%) [1]	PDI [2]	Size (nm) [2]	pKa [3]	IL-6 induction (IL-6, IP-10)	IP-10 induction (IL-6, IP-10)	Cytokine induction IL-6 (IL-6, IP-10)	Cytokine induction IP-10 (IL-6, IP-10)	Total Flux Liver (luciferase (Luc) mRNA [4])	Total Flux Lung (luciferase (Luc) mRNA [4])	Total Flux Spleen (luciferase (Luc) mRNA [4])	Fold increase in total body Luc Flux relative to MC3 at 6 h (luciferase (Luc) mRNA [5])	Total Flux 3 hours (luciferase (Luc) mRNA [5]; mice, i.v., 0.5 mg/kg)	Total Flux 6 hours (luciferase (Luc) mRNA [5]; mice, i.v., 0.5 mg/kg)	Total Flux 24 hours (luciferase (Luc) mRNA [5]; mice, i.v., 0.5 mg/kg)	Total Flux Femur (luciferase (Luc) mRNA [4])	AUC (p/s * h) (luciferase (Luc) mRNA [6])	Lipid/MC3 AUC (luciferase (Luc) mRNA [6])	further results
CCCCCCCCC(CCCCCCCC)OC(=O)CCCCCCCN(CCO)CCCCCCCC [Compound 4, Heptadecan-9-yl 8-((2-hydroxyethyl)(octyl)amino)octanoate]	95.10%	0.21	120.5 nm	6.33	lowest	highest	13.1375	2253.09	5.26E+09	6.22E+07	4.09E+08	1.31	1.37E+11	6.01E+10	1.13E+09				Flux in the spleen (luciferase (Luc) mRNA [4]; i.v., in words): highest; total flux at 3 hours (luciferase (Luc) mRNA [5]; mice, i.v., 0.5 mg/kg, comparison in words): highest
CCCCCCCCCOC(=O)CCCCCCCN(CCCCCCCC(=O)OC(CCCCCCCC)CCCCCCCC)CC(C)O (stereo not drawn) [Compound 10, Heptadecan-9-yl 8-((2-hydroxypropyl)(8-(nonyloxy)-8-oxooctyl)amino) octanoate]	89.60%	0.18	102.9 nm	6.09		lowest	88.81	138.16	3.22E+08	8.85E+05	8.17E+06		6.03E+08	2.37E+09	4.04E+07	5.09E+05			
CCCCCCCCCOC(=O)CCCCCCCN(CCCCCCCC(=O)OC(CCCCCCCC)CCCCCCCC)C[C@@H](C)O [Compound 11, Heptadecan-9-yl (R)-8-((2-hydroxypropyl)(8-(nonyloxy)-8-oxooctyl)amino)octanoate]	92.47%	0.13	129.6 nm	5.97	lowest	lowest	0.14	44.84	8.03E+08	1.35E+07	1.04E+08		3.38E+09	7.11E+09	1.15E+08				
CCCCCCCCCOC(=O)CCCCCCCN(CCCCCCCC(=O)OC(CCCCCCCC)CCCCCCCC)CC(O)CC (stereo not drawn) [Compound 13, Heptadecan-9-yl 8-((2-hydroxybutyl)(8-(nonyloxy)-8-oxooctyl)amino) octanoate]	92.28%	0.13	79.4 nm	5.67		lowest	29.07	126.29	2.25E+07	2.21E+05	7.09E+05		1.02E+08	1.56E+08	1.47E+06	1.35E+05			
CCCCCCCCC(CCCCCCCC)OC(=O)CCCCCCCN(CCO)CCCC(=O)OC(CCCCC)CCCCCCCC (stereo not drawn) [Compound 71, Heptadecan-9-yl 8-((2-hydroxyethyl)(4-oxo-4-(tetradecan-6-yloxy)butyl)amino)octanoate]	97.54%	0.24	71 nm	5.88					7.93E+08	4.86E+06	8.04E+06	0.418	4.09E+09	9.28E+09	6.51E+07		6.61E+07 p/s * h	0.11	
CCCCCCCCCOC(=O)CCCCCCCN(CCCCCCCC(=O)OC(CCCCCCCC)CCCCCCCC)C(CO)CO [Compound 156, Heptadecan-9-yl 8-((1,3-dihydroxypropan-2-yl)(8-(nonyloxy)-8-oxooctyl)amino)octanoate]	98.47%	0.11	68.1 nm	6.572					6.51E+08	1.92E+06	1.82E+07		5.68E+09	1.03E+10	6.53E+07		3.92E+07 p/s * h	0.07	App. pKa ([3]; Table 3F): 6.57; Lipid/MC3 AUC (luciferase (Luc) mRNA [5]; Table 3D, intravenous): 0.61; AUC (p/s * h) (luciferase (Luc) mRNA [5]; Table 3D, intravenous, Luc): 1.170E+011 p/s * h
